In brackets after ≈: the same amount, converted by molar mass. Where two headings read alike, the source gives them in different places. Bounds are passed on as bounds.

Data set [1] concerns ROS production from human peripheral whole blood phagocytes. The data set is described as follows: Luminol enhanced chemiluminescence oxidative burst, whole blood. It counts as cell-based. The method, then:
Intracellular effect was determined using human peripheral whole blood phagocytes and isolated neutrophils and from mice peritoneum macrophages, where luminol-enhanced chemillumenescence assay was applied. The effect on myeloperoxidase independent ROS production was determined using lucigenin on murine macrophages RAW.267 cells.
Table 2. […] 267 cells (murine macrophages). DPI is used as standard drug. Reading presents mean±SD of three determinations.
Luminol enhanced chemiluminescence technique was applied to study the effect of compound on ROS from phagocytes, Using whole blood, neutrophil and macrophages Briefly, 25 μL diluted whole blood (1:50 dilution in sterile HBSS^++) or 25 μL of PMNs (1×10^6), or 25 μL of isolated macrophages (1×10^6) were incubated with 25 μL of compound in triplicates and using three different concentrations (1, 10 and 100 μg/mL) using white 96 wells plates. Wells received HBSS^++ and cells only without compound served as positive control. 25 μL of serum opsonized zymosan-A (SOZ), followed by 25 μL luminol (7×10^−5 M), was added to each well to maintain a volume of 100 μL/well. Plates were then incubated at 37° C. for 30 minutes in the thermostated chamber of the luminometer. Results were monitored as relative light unit (RLU) reading, with peak and total integral values set with repeated scans at 60 seconds intervals, and 1 second points measuring time.

The subject of data set [2] is knee joints of arthritic rats. The experiment in a line: Adjuvant induced arthritis model, histopathology of knee joints (H & E). The note with it: H & E staining. It counts as in vivo, Sprague Dawley rats. The method, then:
All studies were carried out using Female Sprague Dawley (SD) rats weighing 150-250 gms. Animals were kept at 21±2° C. and on a 12-h light/dark cycle, received standardized pelleted diet and tap water. Experiments were performed under the ethical guidelines of the International Association for the study of pain in conscious animals. Each group contains 12 animals with randomly distributed weights into each treatment group.
Arthritis was induced by injecting freshly prepared 100 μL of 1 mg suspension of lyophilized Mycobacterium tuberculosis H37Ra (MT H37Ra; DIFCO Laboratories, Detroit, Mich., USA), subcutaneously at the rat tail base using sterile hypodermic needle. Inoculation was carried out under anesthesia with a combination of 20 mg/kg ketamine and 5 mg/kg xylazine, injected intraperitoneally. Compound and the reference drug were administered daily, intraperitoneally using sterile syringes. The positive control received vehicle (5% DMSO+PBS) or saline only; treatment groups received test compounds (25 mg/kg), whereas reference group received indomethacin (5 mg/kg). The doses of the test compounds were selected after preliminary dose finding studies. The treatment was started on the same day after vaccination.
The animals were sacrificed at the end of the experiment and samples were taken from the knee joints. Sample fixation were done using 10% formalin following decalcification. The samples were then processed, embedded, cut, mounted and stained with hematoxylin and eosin (H & E) dye for microscopic evaluation.

In data set [3] the test system is IL-1β production. The data set is described as follows: IL-1β production from PMA differentiated, LPS activated THP-1 cells (ELISA). It counts as cell-based. The note with it: Homo sapiens, 18 h, read-out: inhibition of IL-1β production (IC50). As to the method: THP-1 (human monocytic leukemia) cells were maintained in RPMI-1640 supplemented with 10% FBS, 2 mmol/L glutamine, 5.5 mmol/L glucose, 50 μmol/L mercaptoethanol, 1 mmol/L sodium pyruvate, and 10 mmol/L HEPES and incubated at 37° C. in 5% CO2. Cells were grown in […] culture flask until they attained 70% confluency. Cells were then plated in 24-well tissue culture plates at a concentration of 2.5×10^5 cells/mL. Cells were differentiated into macrophages using PMA at a final concentration of 20 ng/mL and further incubated at 37° C. in 5% CO2 environment for 24 h. […] After addition of the compound cells were then incubated for 4 h for TNF-α production and 18 h for IL-1β production at 37° C. in 5% CO2. The supernatants were harvested and analyzed for the level of TNF-α and IL-1β, by human TNF-α and IL-1β Duo set ELISA kits, and according to the manufacturer's instructions.
A general note: In an ELISA, binding on a coated surface is turned into a signal by an enzyme label.

Data set [4] relates to non-activated Jurkat cell proliferation. The experiment in a line: Jurkat T cell proliferation. The class given is cell-based. The note with it: Homo sapiens; non-activated Jurkat cells; read-out: Jurkat T cell Proliferation (IC50 μg /mL). The method, then:
In order to monitor the effect of this compound on cellular immune response particularly on T cells, the compound was tested on thymidine incorporated T cell proliferation assay.

Data set [5] can be described thus: MTT cytotoxicity assay, CC1. It counts as cell-based. The note with it: rat, CC1 rat epithelial liver cells, 48 h incubation, read-out: Cytotoxicity (IC50 μg/mL) CC1 cells. The method, then: Cell cytotoxicity assay was performed using three different cell lines NIH 3T3 (mouse embryo, fibroblast cells), CC1 (rat, epithelial, liver cell) and MDBK (bovine kidney) cells using MTT (3-[4,5-dimethylthiazole-2-yl]-2,5-diphenyl-tetrazolium bromide) colorimetric assay. Briefly 3T3 were grown in DMEM, supplemented with 10% of fetal bovine serum (FBS), and 1% penicillin-streptomycin whereas CC1 (rat epithelial liver cells) were cultured in EMEM, 2 mM Glutamine, 1% Non-Essential Amino Acids (NEAA), 20 mM HEPES, 10% Foetal Bovine Serum (FBS) and 1% penicillin-streptomycin, and MDBK cells were grown in 10% of fetal bovine serum (FBS) in 75 cm^2 flask, and incubated in 5% CO2 incubator at 37° C. until they attain 70% confluency. Cells were then harvested by centrifuging at 200 g for 5 min at 25° C., counted using heamocytometer and their concentration was adjusted to 6×10^4 cells/mL. 100 μL of Cells were then plated in 96 well plate and incubated overnight. Next day the supernatant was carefully removed and 200 μL of fresh medium was added with three different concentration of compound (1, 10, 50) μg/mL. […] The extent of MTT reduction to formazan within cells was calculated by measuring the absorbance at 540 nm; using a micro plate reader (Spectra Max plus 340, Molecular Devices, Calif., USA). […] The percent inhibition was calculated by using the following formula: […]
On the technique in general: Formazan colour is commonly taken as a measure of viable cells.

As for `COc1c(O)cc2oc(-c3ccc(O)c(O)c3)c(O)c(=O)c2c1O` [Patuletin, 3,5,7,3′,4′-pentahydroxy-6-methoxy flavones], the IC50 is 3.5 ± 0.5 µg/mL in data set [1] (luminol enhanced, serum opsonized zymosan, read-out: Myeloperoxidase dependent Oxidative Burst (IC50 μg/mL) Whole blood); 3.5 µg/mL in data set [1] (read-out: suppression of ROS production from whole blood (IC50), unit inferred); more than 50 µg/mL in data set [3]; 3.47 µg/mL (≈ 10.4 µM) in data set [4]. Moreover, the “histopathology of knee joints (in words) versus arthritic control rats” value in data set [2] was “less infiltration of lymphocytes and minimal bone destruction”. Moreover, the “histopathology score of knee joints” value in data set [2] (normal control score 0, arthritic control score 4) is listed as 2. The IC50 at 48 h in data set [5] is 5.2 µg/mL (≈ 15.7 µM).
